Experimental data as given in publication PMC8496750, “Identification of the organic anion transporting polypeptides responsible for the hepatic uptake of the major metabolite of epyrifenacil, S‐3100‐CA, in mice” (Pharmacology Research & Perspectives, 2021).

Each compound was assayed against T1, mouse Oatp2b1 (Mus musculus, UniProt Q8BXB6) (assay: Uptake assay for radiolabeled substrates, mouse Oatp2b1 expressing 293FT cells). Conditions: 10‐min incubation, Run_1.
T1 sequence (Q8BXB6 1-683): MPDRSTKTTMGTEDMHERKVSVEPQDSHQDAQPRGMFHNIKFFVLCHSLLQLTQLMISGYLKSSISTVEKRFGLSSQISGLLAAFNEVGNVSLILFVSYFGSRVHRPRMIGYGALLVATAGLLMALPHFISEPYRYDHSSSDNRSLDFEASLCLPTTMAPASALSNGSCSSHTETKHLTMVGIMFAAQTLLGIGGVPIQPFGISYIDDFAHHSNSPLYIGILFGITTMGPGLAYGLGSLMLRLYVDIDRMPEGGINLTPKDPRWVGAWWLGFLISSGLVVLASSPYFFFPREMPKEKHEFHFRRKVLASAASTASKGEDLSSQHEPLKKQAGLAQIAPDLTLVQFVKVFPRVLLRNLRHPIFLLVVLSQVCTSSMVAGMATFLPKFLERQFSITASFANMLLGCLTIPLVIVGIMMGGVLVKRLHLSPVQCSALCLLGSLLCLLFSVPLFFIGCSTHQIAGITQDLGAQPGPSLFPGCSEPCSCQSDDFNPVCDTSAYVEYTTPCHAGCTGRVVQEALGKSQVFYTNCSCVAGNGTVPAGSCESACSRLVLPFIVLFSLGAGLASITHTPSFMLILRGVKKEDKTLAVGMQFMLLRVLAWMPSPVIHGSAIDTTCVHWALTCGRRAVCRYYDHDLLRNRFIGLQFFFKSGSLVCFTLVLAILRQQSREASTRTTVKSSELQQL
Method: (§1) 293FT cells were purchased from Thermo Fisher Scientific, Inc.. The cells were grown in Dulbecco's modified Eagle medium (supplemented with 4.5 g/L glucose and 2 mM L‐glutamine) at 37°C, 5% CO2, and 95% humidity. The cells were passaged 3 times per week by harvesting cells using trypsin and plating at a density of 1.0 × 10^4 cells/cm^2 in a 10 cm cell culture plate for maintenance culture. The 293FT cells were detached using trypsin and re‐seeded at a density of 2.5 × 10^4 cells/cm^2 in BioCoat™ Collagen I 6‐well plates (Corning Inc.) for transfection and then treated with 1.2 μg of plasmid vector and 3.2 μl of Lipofectamine™ 2000 Transfection Reagent (Thermo Fisher Scientific, Inc.) according to the manufacturer's instructions. After a 3‐h treatment, the transfection medium was replaced with a fresh cell culture medium and incubated at 37°C with 95% humidity and 5% CO2 until ready for the assay.
(§2) Transport experiments were conducted approximately 24 h post‐transfection. The experiments were initiated by aspirating culture medium and addition of pre‐warmed radiolabeled substrate solution (final 1.0% of acetonitrile or 0.9% of ethanol in phosphate‐buffered saline (PBS[−])) to each well. After a 10‐min incubation, cells were washed twice with 1 ml of ice‐cold PBS(−) and lysed with 700 μl of 1.0 M NaOH for 3 h or more at room temperature. The lysate was transferred to a 1.5‐ml tube, and neutralized with 350 μl of 2.0 M HCl and 350 μl of 2.0% sodium dodecyl sulfate (SDS) solution. From the lysate, 1.0 ml was transferred to a vial containing 10 ml of Emulsifier Scintillator Plus to measure the radioactivity in the LSC. The protein concentration of the cell lysate was also measured using a Pierce™ BCA Protein Assay Kit (Thermo Fisher Scientific, Inc.), which was used to normalize, according to the cell number, the radioactivity in the cell lysate extract. The protein assay was performed in duplicate. Each sample type was assayed in triplicate wells, and each run was performed twice. When the difference in mean uptake between OATP expressing cells and mock cells was more than 2 times, the OATP was judged to be involved in transportation of the substrate. […] Each sample type was assayed in triplicate wells.

Point of comparison: `C[C@]12CC[C@@H]3c4ccc(OS(=O)(=O)O)cc4CC[C@H]3[C@@H]1CCC2=O` [E3S, Estrone 3‐sulfate], “Ratio of uptake amount relative to the uptake into mock cells” value 2.9. Against it:
- Cn1c(C(F)(F)F)cc(=O)n(-c2cc(Oc3cccnc3OCC(=O)O)c(Cl)cc2F)c1=O [S‐3100‐CA] — lower, 2.4
- C[C@]12CC[C@@H]3c4ccc(O)cc4CC[C@H]3[C@@H]1CC[C@@H]2O[C@@H]1O[C@H](C(=O)O)[C@@H](O)[C@H](O)[C@H]1O [E217βG, Estradiol 17β‐D‐glucuronide] — higher, 4.1

Same assay, conditions: 10‐min incubation, Run_2

Point of comparison: `C[C@]12CC[C@@H]3c4ccc(O)cc4CC[C@H]3[C@@H]1CC[C@@H]2O[C@@H]1O[C@H](C(=O)O)[C@@H](O)[C@H](O)[C@H]1O` [E217βG, Estradiol 17β‐D‐glucuronide], “Ratio of uptake amount relative to the uptake into mock cells” value 2.0. Against it:
- Cn1c(C(F)(F)F)cc(=O)n(-c2cc(Oc3cccnc3OCC(=O)O)c(Cl)cc2F)c1=O [S‐3100‐CA] — higher, 4.0
- C[C@]12CC[C@@H]3c4ccc(OS(=O)(=O)O)cc4CC[C@H]3[C@@H]1CCC2=O [E3S, Estrone 3‐sulfate] — higher, 3.9

The compounds below were run against T2, mouse Oatp1b2 (Mus musculus, UniProt Q9JJL3) (assay: Uptake assay for radiolabeled substrates, mouse Oatp1b2 expressing 293FT cells). Conditions: 10‐min incubation, Run_1.
T2 sequence (Q9JJL3 1-689): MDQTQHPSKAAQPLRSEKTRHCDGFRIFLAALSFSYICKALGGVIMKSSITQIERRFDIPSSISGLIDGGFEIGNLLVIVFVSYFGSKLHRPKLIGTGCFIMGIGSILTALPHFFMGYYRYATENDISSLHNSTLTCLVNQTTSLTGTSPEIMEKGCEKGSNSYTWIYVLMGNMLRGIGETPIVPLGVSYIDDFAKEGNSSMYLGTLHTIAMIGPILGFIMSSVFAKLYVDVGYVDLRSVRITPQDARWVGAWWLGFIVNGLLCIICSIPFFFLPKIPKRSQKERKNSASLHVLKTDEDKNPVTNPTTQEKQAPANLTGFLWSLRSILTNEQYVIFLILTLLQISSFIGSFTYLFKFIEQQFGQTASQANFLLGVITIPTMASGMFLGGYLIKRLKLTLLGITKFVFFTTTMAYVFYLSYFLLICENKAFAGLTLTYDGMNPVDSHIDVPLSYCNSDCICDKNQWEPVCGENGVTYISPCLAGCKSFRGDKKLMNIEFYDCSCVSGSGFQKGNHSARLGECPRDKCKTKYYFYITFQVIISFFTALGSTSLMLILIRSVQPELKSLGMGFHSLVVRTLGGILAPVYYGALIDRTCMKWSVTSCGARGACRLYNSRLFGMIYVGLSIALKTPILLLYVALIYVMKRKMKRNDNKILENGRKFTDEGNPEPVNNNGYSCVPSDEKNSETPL
Method: as §1, §2

Point of comparison: `Cn1c(C(F)(F)F)cc(=O)n(-c2cc(Oc3cccnc3OCC(=O)O)c(Cl)cc2F)c1=O` [S‐3100‐CA], “Ratio of uptake amount relative to the uptake into mock cells” value 11.7. Against it:
- C[C@]12CC[C@@H]3c4ccc(OS(=O)(=O)O)cc4CC[C@H]3[C@@H]1CCC2=O [E3S, Estrone 3‐sulfate] — higher, 23.8
- C[C@]12CC[C@@H]3c4ccc(O)cc4CC[C@H]3[C@@H]1CC[C@@H]2O[C@@H]1O[C@H](C(=O)O)[C@@H](O)[C@H](O)[C@H]1O [E217βG, Estradiol 17β‐D‐glucuronide] — lower, 8.3

Same assay, conditions: 10‐min incubation, Run_2

Point of comparison: `C[C@]12CC[C@@H]3c4ccc(OS(=O)(=O)O)cc4CC[C@H]3[C@@H]1CCC2=O` [E3S, Estrone 3‐sulfate], “Ratio of uptake amount relative to the uptake into mock cells” value 19.7. Against it:
- Cn1c(C(F)(F)F)cc(=O)n(-c2cc(Oc3cccnc3OCC(=O)O)c(Cl)cc2F)c1=O [S‐3100‐CA] — lower, 6.2
- C[C@]12CC[C@@H]3c4ccc(O)cc4CC[C@H]3[C@@H]1CC[C@@H]2O[C@@H]1O[C@H](C(=O)O)[C@@H](O)[C@H](O)[C@H]1O [E217βG, Estradiol 17β‐D‐glucuronide] — lower, 14.7

These compounds were tested against T3, rat Oatp1b2 (Rattus norvegicus, UniProt Q9QZX8) (assay: Uptake assay for radiolabeled substrates, rat Oatp1b2 expressing 293FT cells). Conditions: 10‐min incubation, Run_1.
T3 sequence (Q9QZX8 1-687): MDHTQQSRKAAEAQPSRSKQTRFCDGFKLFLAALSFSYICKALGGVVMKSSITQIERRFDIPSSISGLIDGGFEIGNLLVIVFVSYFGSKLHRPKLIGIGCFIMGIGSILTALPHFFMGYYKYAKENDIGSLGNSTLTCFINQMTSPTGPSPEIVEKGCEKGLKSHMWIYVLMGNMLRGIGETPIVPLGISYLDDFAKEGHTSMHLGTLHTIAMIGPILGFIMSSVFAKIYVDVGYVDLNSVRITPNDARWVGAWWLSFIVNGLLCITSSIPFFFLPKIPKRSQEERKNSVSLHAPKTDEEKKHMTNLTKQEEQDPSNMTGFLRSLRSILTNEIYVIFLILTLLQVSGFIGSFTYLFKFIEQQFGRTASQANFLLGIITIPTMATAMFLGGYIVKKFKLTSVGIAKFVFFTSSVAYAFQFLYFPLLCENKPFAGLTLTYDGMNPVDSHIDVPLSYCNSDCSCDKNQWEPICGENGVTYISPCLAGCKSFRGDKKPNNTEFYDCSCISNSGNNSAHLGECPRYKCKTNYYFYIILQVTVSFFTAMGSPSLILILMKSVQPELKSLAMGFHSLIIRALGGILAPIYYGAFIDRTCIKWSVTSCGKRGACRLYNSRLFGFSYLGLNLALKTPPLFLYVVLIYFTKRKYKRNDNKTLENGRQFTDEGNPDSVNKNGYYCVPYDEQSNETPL
Method: as §1, §2

Point of comparison: `C[C@]12CC[C@@H]3c4ccc(O)cc4CC[C@H]3[C@@H]1CC[C@@H]2O[C@@H]1O[C@H](C(=O)O)[C@@H](O)[C@H](O)[C@H]1O` [E217βG, Estradiol 17β‐D‐glucuronide], “Ratio of uptake amount relative to the uptake into mock cells” value 27.4. Against it:
- Cn1c(C(F)(F)F)cc(=O)n(-c2cc(Oc3cccnc3OCC(=O)O)c(Cl)cc2F)c1=O [S‐3100‐CA] — lower, 6.6
- C[C@]12CC[C@@H]3c4ccc(OS(=O)(=O)O)cc4CC[C@H]3[C@@H]1CCC2=O [E3S, Estrone 3‐sulfate] — lower, 10.0

Same assay, conditions: 10‐min incubation, Run_2

Point of comparison: `C[C@]12CC[C@@H]3c4ccc(O)cc4CC[C@H]3[C@@H]1CC[C@@H]2O[C@@H]1O[C@H](C(=O)O)[C@@H](O)[C@H](O)[C@H]1O` [E217βG, Estradiol 17β‐D‐glucuronide], “Ratio of uptake amount relative to the uptake into mock cells” value 43.2. Against it:
- Cn1c(C(F)(F)F)cc(=O)n(-c2cc(Oc3cccnc3OCC(=O)O)c(Cl)cc2F)c1=O [S‐3100‐CA] — lower, 8.4
- C[C@]12CC[C@@H]3c4ccc(OS(=O)(=O)O)cc4CC[C@H]3[C@@H]1CCC2=O [E3S, Estrone 3‐sulfate] — lower, 4.7
